Results: the supplement of paper PMC10307832

Assays:
Experiment in all cases: relative viability (nuclei count vs DMSO), 5 days (fraction); higher = more cells survive
XMD13-2 + Phenformin = compound: C1CC1C(=O)NC2=NNC3=C2C=CC(=C3)C4=CC(=CC=C4)C(=O)NC5CC5 [XMD13-2] + N=C(N)NC(=N)NCCc1ccccc1 [Phenformin] (partner 250 µM)
How it was run: (§1)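 Dosing by pin tool came one day after lung cancer cell lines were seeded in 1536-well plates, using either one drug or a fixed anchor-drug dose plus five library-drug doses (not always all listed) in √10 steps. After 5 days, nuclei were counted on 4× images. Relative viability is treated-well nuclei count divided by vehicle-well nuclei count, and values are medians of duplicate plates.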

ALW-II-49-7 + Lapatinib = compound: Cc1ccc(C(=O)Nc2cccc(C(F)(F)F)c2)cc1Nc1cncc(C(N)=O)c1 [ALW-II-49-7] + CS(=O)(=O)CCNCc1ccc(-c2ccc3ncnc(Nc4ccc(OCc5cccc(F)c5)c(Cl)c4)c3c2)o1 [Lapatinib] (partner 2 µM)
How it was run: as §1

XMD13-2 + Dasatinib = compound: C1CC1C(=O)NC2=NNC3=C2C=CC(=C3)C4=CC(=CC=C4)C(=O)NC5CC5 [XMD13-2] + Cc1nc(Nc2ncc(C(=O)Nc3c(C)cccc3Cl)s2)cc(N2CCN(CCO)CC2)n1 [Dasatinib] (partner 0.075 µM)
How it was run: as §1

Dasatinib + OSI-027 = compound: Cc1nc(Nc2ncc(C(=O)Nc3c(C)cccc3Cl)s2)cc(N2CCN(CCO)CC2)n1 [Dasatinib] + COc1cccc2cc(-c3nc([C@H]4CC[C@H](C(=O)O)CC4)n4ncnc(N)c34)[nH]c12 [OSI-027] (partner 0.5 µM)
How it was run: as §1

Row | Cell Line | relative viability (XMD13-2 + Phenformin; first compound 0.05 µM) | relative viability (XMD13-2 + Phenformin; first compound 0.1581 µM) | relative viability (XMD13-2 + Phenformin; first compound 0.5 µM) | relative viability (XMD13-2 + Phenformin; first compound 1.581 µM) | relative viability (XMD13-2 + Phenformin; first compound 5 µM) | relative viability (ALW-II-49-7 + Lapatinib; first compound 0.08 µM) | relative viability (ALW-II-49-7 + Lapatinib; first compound 0.253 µM) | relative viability (ALW-II-49-7 + Lapatinib; first compound 0.8 µM) | relative viability (ALW-II-49-7 + Lapatinib; first compound 2.53 µM) | relative viability (ALW-II-49-7 + Lapatinib; first compound 8 µM) | relative viability (XMD13-2 + Dasatinib; first compound 0.05 µM) | relative viability (XMD13-2 + Dasatinib; first compound 0.1581 µM) | relative viability (XMD13-2 + Dasatinib; first compound 0.5 µM) | relative viability (XMD13-2 + Dasatinib; first compound 1.581 µM) | relative viability (XMD13-2 + Dasatinib; first compound 5 µM) | relative viability (Dasatinib + OSI-027; first compound 0.005 µM) | relative viability (Dasatinib + OSI-027; first compound 0.01581 µM) | relative viability (Dasatinib + OSI-027; first compound 0.05 µM) | relative viability (Dasatinib + OSI-027; first compound 0.1581 µM) | relative viability (Dasatinib + OSI-027; first compound 0.5 µM)
1 | 201T | 0.462 | 0.45 | 0.397 | 0.467 | 0.464 | 1.08 | 1.1 | 1.05 | 1.03 | 0.903 | 0.686 | 0.533 | 0.578 | 0.555 | 0.563 | 0.662 | 0.567 | 0.597 | 0.386 | 0.211
2 | A549 | 0.547 | 0.152 | 0.153 | 0.12 | 0.232 | 0.958 | 1.03 | 1.01 | 1.05 | 0.978 | – | – | – | – | – | – | – | – | – | –
3 | A-427 | 0.37 | 0.252 | 0.334 | 0.263 | 0.282 | 0.988 | 1.13 | 1.06 | 1.07 | 0.969 | 0.767 | 0.792 | 0.705 | 0.683 | 0.536 | 0.464 | 0.338 | 0.411 | 0.342 | 0.37
4 | ABC-1 | 0.219 | 0.24 | 0.242 | 0.267 | 0.26 | 1.31 | 1.07 | 1.1 | 0.311 | 0.999 | 0.53 | 0.542 | 0.599 | 0.51 | 0.426 | 0.506 | 0.429 | 0.363 | 0.36 | 0.345
5 | BEN | 0.28 | 0.263 | 0.254 | 0.26 | 0.311 | 0.721 | 0.814 | 0.649 | – | 0.629 | 0.321 | 0.327 | 0.343 | 0.246 | 0.331 | 0.262 | 0.233 | 0.218 | 0.214 | 0.187
6 | CAL-12T | 0.575 | 0.538 | 0.61 | 0.538 | 0.665 | 0.641 | – | – | 0.568 | 0.697 | 0.497 | 0.402 | 0.405 | 0.396 | 0.409 | 0.845 | 0.819 | 0.846 | 0.375 | 0.221
7 | COR-L23 | 0.479 | 0.437 | 0.472 | 0.409 | 0.398 | 0.919 | 0.656 | 1.16 | 1.01 | 1.08 | 0.585 | 0.544 | 0.477 | 0.42 | 0.497 | 0.628 | 0.612 | 0.61 | 0.46 | 0.375
8 | COR-L 105 | 0.589 | 0.532 | 0.455 | 0.506 | 0.452 | 0.318 | 0.372 | 0.335 | 0.359 | 0.416 | 0.463 | 0.325 | 0.343 | 0.365 | 0.323 | 0.555 | 0.467 | 0.418 | 0.262 | 0.222
9 | Calu-6 | – | – | – | – | – | 0.896 | 1.08 | 1.02 | 1.59 | 1.02 | – | – | – | – | – | – | – | – | – | –
10 | ChaGo-K-1 | 0.549 | 0.416 | 0.507 | 0.489 | 0.474 | – | – | – | – | – | 0.651 | 0.533 | 0.604 | 0.602 | 0.517 | 0.556 | 0.501 | 0.52 | 0.459 | 0.423
11 | EBC-1 | – | – | – | – | – | 0.197 | 0.186 | 0.15 | 0.231 | 0.162 | – | – | – | – | – | – | – | – | – | –
12 | EKVX | 0.224 | 0.222 | 0.229 | 0.212 | 0.238 | 0.194 | 0.188 | 0.173 | 0.127 | 0.188 | 0.591 | 0.445 | 0.548 | 0.594 | 0.497 | 0.66 | 0.508 | 0.546 | 0.355 | 0.123
13 | EMC-BAC-2 | 0.534 | 0.52 | 0.586 | 0.511 | 0.561 | 0.829 | 0.812 | 0.888 | 0.937 | 0.814 | 0.32 | 0.323 | 0.202 | 0.302 | 0.25 | 0.315 | 0.264 | 0.259 | 0.192 | 0.152
14 | EPLC-272H | 0.322 | 0.262 | 0.344 | 0.368 | 0.266 | 0.666 | 0.916 | 1.07 | 1.08 | 0.782 | 0.39 | 0.31 | 0.503 | 0.317 | 0.269 | 0.33 | 0.338 | 0.252 | 0.29 | 0.091
15 | H3255 | 0.21 | 0.378 | 0.409 | 0.364 | 0.358 | 0.27 | 0.363 | 0.266 | 0.225 | 0.212 | 0.425 | 0.402 | 0.367 | 0.294 | 0.373 | 0.639 | 0.484 | 0.653 | 0.44 | 0.274
16 | HARA | 0.477 | 0.438 | 0.474 | 0.44 | 0.485 | 0.675 | 0.689 | 0.87 | 0.964 | 0.866 | 0.353 | 0.196 | 0.279 | 0.295 | 0.298 | 0.339 | 0.4 | 0.375 | 0.156 | 0.0755
17 | HCC-15 | 0.609 | 0.523 | 0.546 | 0.456 | 0.407 | 0.811 | 0.818 | 0.793 | 0.815 | 0.764 | 0.775 | 0.66 | 0.715 | 0.614 | 0.423 | 0.641 | 0.652 | 0.526 | 0.412 | 0.454
18 | HCC-44 | 0.217 | 0.161 | 0.213 | 0.269 | 0.183 | 0.967 | 1.04 | 0.995 | 0.973 | 0.923 | – | – | – | – | – | 0.65 | 0.754 | 0.466 | 0.337 | 0.273
19 | HCC-78 | 0.831 | 0.755 | 0.661 | 0.671 | 0.684 | 0.779 | 0.957 | 0.993 | 0.878 | 0.623 | 0.565 | 0.321 | 0.36 | 0.347 | 0.351 | 0.317 | 0.361 | 0.267 | 0.326 | 0.257
